Here are results for 16 compounds from patent US20100168102A9, “Amide Derivatives as Kinase Inhibitors” (Devgen NV, priority 2005, published 2010).

In assay [1] the target is T1, human ROCKα/ROCKII mix (Homo sapiens, UniProt O75116).
T1 construct: purchased Upstate Biotechnology 14-451
The assay is described as follows: Biochemical assay for ROCK (fluorescence polarization, ROCK IMAP Kit).

In assay [2] the target is T2, PKC epsilon (Homo sapiens, UniProt Q02156).
T2 construct: purchased Invitrogen P2282
T2 sequence (Q02156 1-737): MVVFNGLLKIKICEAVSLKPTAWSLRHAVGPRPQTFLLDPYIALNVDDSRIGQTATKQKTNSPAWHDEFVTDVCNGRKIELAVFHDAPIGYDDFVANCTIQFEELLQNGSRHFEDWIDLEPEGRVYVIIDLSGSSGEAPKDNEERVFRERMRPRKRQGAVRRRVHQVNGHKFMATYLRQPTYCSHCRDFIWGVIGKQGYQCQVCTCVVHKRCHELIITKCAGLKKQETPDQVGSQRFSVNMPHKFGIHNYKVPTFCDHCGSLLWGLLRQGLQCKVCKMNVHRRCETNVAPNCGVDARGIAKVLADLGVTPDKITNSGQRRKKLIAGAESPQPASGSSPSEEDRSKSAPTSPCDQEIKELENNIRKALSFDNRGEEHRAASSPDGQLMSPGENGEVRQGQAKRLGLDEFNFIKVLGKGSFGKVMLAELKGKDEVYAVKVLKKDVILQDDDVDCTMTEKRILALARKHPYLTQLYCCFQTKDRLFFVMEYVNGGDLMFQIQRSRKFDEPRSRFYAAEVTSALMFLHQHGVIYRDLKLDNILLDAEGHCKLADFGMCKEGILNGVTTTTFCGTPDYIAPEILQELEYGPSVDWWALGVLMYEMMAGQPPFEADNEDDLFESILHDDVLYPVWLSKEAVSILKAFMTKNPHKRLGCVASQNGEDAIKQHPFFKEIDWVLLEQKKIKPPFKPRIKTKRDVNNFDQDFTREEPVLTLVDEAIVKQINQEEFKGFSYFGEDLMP
The assay is described as follows: Biochemical assay for PKC epsilon (fluorescence polarization, Protein Kinase C Assay Kit, Red). The settings on record: read-out: IC50 μM PKCε. In a few lines:
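PKC epsilon at 10 ng/ml final was preincubated 30 min at room temperature with compound in HEPES pH 7.4 with DTT and Triton X-100. ATP/protein substrate was then added in buffer with MgCl2 and CaCl2 for 80 min. The reaction was stopped with EDTA, phosphorylation was detected by fluorescence polarization with rhodamine tracer and anti-phosphoserine antibody, and IC50 values came from curve fits.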

The target of assay [3] is T3, PKC theta (Homo sapiens, UniProt Q04759).
T3 construct: purchased Invitrogen P2996
T3 sequence (Q04759 whole entry): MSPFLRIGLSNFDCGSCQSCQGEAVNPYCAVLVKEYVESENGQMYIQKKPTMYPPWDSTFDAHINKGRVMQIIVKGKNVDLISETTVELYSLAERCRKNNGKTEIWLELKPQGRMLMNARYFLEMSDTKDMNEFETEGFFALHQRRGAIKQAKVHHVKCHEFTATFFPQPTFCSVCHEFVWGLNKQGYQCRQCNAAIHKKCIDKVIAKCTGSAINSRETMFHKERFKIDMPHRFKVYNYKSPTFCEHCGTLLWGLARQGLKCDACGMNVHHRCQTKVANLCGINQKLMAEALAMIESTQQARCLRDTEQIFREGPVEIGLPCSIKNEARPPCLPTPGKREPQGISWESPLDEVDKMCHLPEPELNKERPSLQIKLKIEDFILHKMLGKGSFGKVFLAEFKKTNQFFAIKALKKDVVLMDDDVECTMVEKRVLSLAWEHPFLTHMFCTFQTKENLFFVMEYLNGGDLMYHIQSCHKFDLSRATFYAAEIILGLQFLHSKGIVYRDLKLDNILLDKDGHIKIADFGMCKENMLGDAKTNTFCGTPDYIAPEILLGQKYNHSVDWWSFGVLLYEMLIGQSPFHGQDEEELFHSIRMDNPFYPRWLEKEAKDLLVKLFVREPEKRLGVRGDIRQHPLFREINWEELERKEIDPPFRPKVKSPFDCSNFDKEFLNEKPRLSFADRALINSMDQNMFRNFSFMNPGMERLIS
In words: Biochemical assay for PKC theta (fluorescence polarization, Protein Kinase C Assay Kit, Red). As for the experimental part: The compounds were tested for inhibition of PKC theta.
The inhibition assays were performed with a fluorescence polarization (FP) assay using the commercially available Protein Kinase C Assay Kit, Red, from Invitrogen (Product ID. No. P2941), essentially in accordance with the protocol supplied by the manufacturer. The substrate used was […] (Mw 1561), also obtained from Invitrogen (Product ID No. P2760). The isozyme PKC theta was also obtained from Invitrogen (Product ID No. P2996).
Staurosporine was used as a positive control (2 μM).
To perform the assay, 2 μl, of a solution of the compound to be tested in DMSO (at each concentration) was added to 6 μl of a solution of the enzyme in 10 mM HEPES, 5 mM dithiotreitol, 0.1% Triton X-100, pH 7.4. The final concentration of the enzymes was 60 ng/ml.
After incubating for 30 minutes at room temperature, 4 μl of a mixture of ATP and the protein substrate in 60 mM HEPES (pH7.4), 15 mM MgCl2, 0.3 mM CaCl2, 0.06% NP40 was added. The final concentration of the ATP was 2.5 μM and final concentration of protein substrate was 1 μM.
After incubating for 80 minutes at room temperature, 3 μl of a mix solution of 500 mM EDTA (stop solution) and the Rhodamine-based PKC Red Tracer (from the Protein Kinase C Assay Kit) in BGG/phosphate buffer (pH7.4) with 0.02% NaN3 and 0.1% Triton X-100 was added and 5 μl of a the Anti-Phosphoserine antibody (also from the Protein Kinase C Assay Kit) in BGG/phosphate buffer (pH7.4) with 0.02% NaN3.
The mixture thus obtained (total volume: 20 μl) was incubated for 60 minutes at room temperature, upon which the fluorescence polarization was measured using an automated plate reader (Perkin Elmer, Model Envision 2100-0010 HTS) with FP filters for rhodamine: excitation fitter FITC FP 531 and emission filters FITC FP P-pol 595 and FITC FP S-pol 595 (Perkin-Elmer). The results were fitted to a curve using the XL-Fit algorithm and IC50 values were calculated for each fitted curve, again using the XL-Fit algorithm.

Assay [4] relates to PKCε. The assay is described as follows: Reporter assay (PathDetect trans reporter, Elk/SEAP) in reporter cell-lines over-expressing PKCε. It counts as cell-based. An excerpt: Whereas the reporter assay is focused on PKCε specific inhibition in a recombinant system, the monocytes assay is a biomarker assay that can be performed in isolated monocytes, full blood and in vivo to follow the pharmacological reduction of cytokine production:
The reporter assay exploits the effect of over-expressed PKCε on kinase activation and phosphorylation of a transcription factor to evaluate the potency and selectivity of PKCε inhibitors in a cellular context.
It has been shown by jae-Won Soh et al (MCB, February 1999 p 1313-1324) that over-expression of PKC epsilon results in the activation of MAPK-pathway (c-raf/MEK/ERK) leading to the activation of Elk transcription factor. This event can be monitored using the PathDetect trans reporter assay system (Stratagene): pFA2-ELK codes for a fusion protein between the Gal4 DNA binding domain and the transactivation domain of Elk which drives the expression of a secreted alkaline phosphatase (SEAP) reporter gene.
Compounds are incubated with reporter cell-lines either over-expressing PKCε, leading to continued activation of the kinase, or mock transfected cells. Inhibition of the PKCε induced signal in the absence of an effect on the basal level (mock transfected cells) is indicative for selective PKCε inhibition.

[5] abbreviates: Table 2, compounds of Formula XIII.
Setting [6] is: compounds of Formula XIV, Table 3.

pIC50: −log10 of the molar value. Structures can show the parent of a compound that is named as a salt. Where two headings read alike, the source gives them in different places.

T1 sequence (O75116 11-552 limits assumed): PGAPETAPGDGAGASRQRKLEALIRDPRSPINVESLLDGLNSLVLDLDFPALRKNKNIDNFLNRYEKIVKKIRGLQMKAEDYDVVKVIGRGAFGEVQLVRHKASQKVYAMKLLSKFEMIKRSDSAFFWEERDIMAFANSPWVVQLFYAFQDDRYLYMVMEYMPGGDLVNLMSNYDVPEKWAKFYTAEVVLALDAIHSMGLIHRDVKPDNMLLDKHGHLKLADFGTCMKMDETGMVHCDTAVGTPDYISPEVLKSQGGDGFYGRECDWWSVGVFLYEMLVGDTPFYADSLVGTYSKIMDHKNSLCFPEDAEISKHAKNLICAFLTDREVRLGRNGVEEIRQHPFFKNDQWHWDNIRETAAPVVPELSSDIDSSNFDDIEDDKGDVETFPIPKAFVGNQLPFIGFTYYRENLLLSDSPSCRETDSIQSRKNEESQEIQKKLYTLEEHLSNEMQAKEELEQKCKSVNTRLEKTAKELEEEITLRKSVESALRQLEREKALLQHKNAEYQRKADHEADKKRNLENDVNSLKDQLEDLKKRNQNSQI

With `NC(CNC(=O)C1(c2ccc(Cl)cc2)CC1)c1ccc(C(=O)Nc2ccncc2)cc1` (stereo not shown) [Compound 168, 4-(1-Amino-2-{[1-(4-chloro-phenyl)-cyclopropanecarbonyl]-amino}-ethyl)-N-pyridin-4-yl-benzamide dihydrochloride], the IC50 in assay [1] (setting [5]) was 0.05 to 0.5 µM; in assay [2] (setting [5]), < 0.05 µM. This compound showed a pIC50 in assay [3] of 6.30 to 7.30.

Turning to `CC(C)(C(=O)NCC(N)c1ccc(C(=O)Nc2ccncc2)cc1)c1ccc(Cl)cc1` (stereo not shown) [Compound 335, 4-{1-Amino-2-[2-(4-chloro-phenyl)-2-methyl-propionylamino]-ethyl}-N-pyridin-4-yl-benzamide], in assay [2] (setting [5]), the IC50 was < 0.05 µM. In addition, the pIC50 in assay [4] was > 5.30; in assay [3], 6.30 to 7.30.

For `CC(C)(C(=O)NCC(N)c1ccc(C(=O)Nc2ccncc2)cc1)c1ccc(F)cc1` (stereo not shown) [Compound 339, 4-{1-Amino-2-[2-(4-fluoro-phenyl)-2-methyl-propionylamino]-ethyl}-N-pyridin-4-yl-benzamide], the half-inhibitory concentration (IC50) is 0.05 to 0.5 µM in assay [1] (setting [5]) and < 0.05 µM in assay [2] (setting [5]). Besides, the pIC50 in assay [4] is > 5.30; in assay [3], > 7.30.

In the case of `NC(CNC(=O)C1(c2ccc(F)cc2)CC1)c1ccc(C(=O)Nc2ccncc2)cc1` (stereo not shown) [Compound 340, 4-(1-Amino-2-{[1-(4-fluoro-phenyl)-cyclopropanecarbonyl]-amino}-ethyl)-N-pyridin-4-yl-benzamide], the IC50 in assay [2] (setting [5]) was < 0.05 µM. Further, the pIC50 in assay [4] is > 5.30.

For `NC(CNC(=O)C1CCCCc2ccc(F)cc21)c1ccc(C(=O)Nc2ccncc2)cc1` (stereo not shown) [Compound 356, 3-Fluoro-6,7,8,9-tetrahydro-5H-benzocycloheptene-5-carboxylic acid {2-amino-2-[4-(pyridin-4-ylcarbamoyl)-phenyl]-ethyl}-amide], the IC50 in assay [1] (setting [5]) was 0.05 to 0.5 µM; in assay [2] (setting [5]) it was < 0.05 µM. Further, the pIC50 in assay [4] is > 5.30.

On to `NC(CNC(=O)C1(c2ccc(Cl)cc2)CC1)c1ccc(C(=O)Nc2ccnc3[nH]ccc23)cc1` (stereo not shown) [Compound 371, 4-(1-Amino-2-{[1-(4-chloro-phenyl)-cyclopropanecarbonyl]-amino}-ethyl)-N-(1H-pyrrolo[2,3-b]pyridin-4-yl)-benzamide dihydrochloric acid salt], for which the pIC50 was > 5.30 in assay [4] and > 7.30 in assay [3].

Regarding `N[C@H](CC(=O)N[C@@H]1CCCc2ccccc21)c1ccc(C(=O)Nc2ccncc2)cc1` [Compound 373, 4-{(R)-1-Amino-2-[(R)-(1,2,3,4-tetrahydro-naphthalen-1-yl)carbamoyl]-ethyl}-N-pyridin-4-yl-benzamide dihydrochloric acid salt], the IC50 in assay [1] and in assay [2] was < 0.05 µM in each case. The negative logarithm of the IC50 (pIC50) in assay [4] was > 5.30.

In the case of `CC(C)(C(=O)NC[C@@H](N)c1ccc(C(=O)Nc2ccncc2)cc1)c1ccc(Cl)cc1` [Compound 399, 4-{(S)-1-Amino-2-[2-(4-chloro-phenyl)-2-methyl-propionylamino]-ethyl}-N-pyridin-4-yl-benzamide dihydrochloric acid salt], the IC50 in assay [1] is 0.05 to 0.5 µM; in assay [2], < 0.05 µM. The negative-log IC50 (pIC50) in assay [4] is > 5.30; in assay [3], > 7.30.

`NC(c1ccc(C(=O)Nc2ccncc2)cc1)C1CCCN1C(=O)C1CCSc2ccc(F)cc21` (stereo not shown) [Compound 619, 4-{Amino[1-(6-fluoro-thiochroman-4-carbonyl)-pyrrolidin-2-yl]-methyl}-N-pyridin-4-yl-benzamide]: the IC50 in assay [1] and in assay [2] was 0.5 to 5 µM throughout.

Take `NC(c1ccc(C(=O)Nc2ccncc2)cc1)C1CCCN1C(=O)C1CCCCc2ccc(F)cc21` (stereo not shown) [Compound 620, 4-{Amino-[1-(3-fluoro-6,7,8,9-tetrahydro-5H-benzocycloheptene-5-carbonyl)-pyrrolidin-2-yl]-methyl}-N-pyridin-4-yl-benzamide]: the IC50 in assay [1] and in assay [2] was 5 to 50 µM in each case.

`NC(c1ccc(C(=O)Nc2ccncc2)cc1)C1CCCN1C(=O)C1CCCc2sccc21` (stereo not shown) [Compound 621, 4-{Amino-[1-(4,5,6,7-tetrahydro-benzo[b]thiophene-4-carbonyl)-pyrrolidin-2-yl]-methyl}-N-pyridin-4-yl-benzamide]: the IC50 fell in the range of 0.05 to 0.5 µM in assay [1] and 0.5 to 5 µM in assay [2].

With `CC(C)(NC(=O)CC(N)c1ccc(C(=O)Nc2ccncc2)cc1)c1ccc(Cl)cc1` (stereo not shown) [Compound 622, 4-{1-Amino-2-[1-(4-chloro-phenyl)-1-methyl-ethylcarbamoyl]-ethyl}-N-pyridin-4-yl-benzamide], the IC50 in assay [1] (setting [6]) and in assay [2] (setting [6]) was 0.05 to 0.5 µM throughout.

Regarding “Bicyclo[4.2.0]octa-1(6),2,4- triene-7-carboxylic acid {2- amino-2-[4-(pyridin-4- ylcarbamoyl)-phenyl]-ethyl}- methyl-amide [Compound 451]”, the IC50 in assay [1] fell in the range of 0.05 to 0.5 µM; in assay [2], 5 to 50 µM.

Consider “Chroman-4-carboxylic acid {2-amino-2-[4-(pyridin-4- ylcarbamoyl)-phenyl]-ethyl}- methyl-amide [Compound 514]”, for which the figures for the IC50 in assay [1] and in assay [2] were 0.5 to 5 µM and 5 to 50 µM, respectively.

Consider “Indan-1-carboxylic acid {2- amino-2-[4-(pyridin-4- ylcarbamoyl)-phenyl]-ethyl}- methyl-amide [Compound 507]”, for which the IC50 in assay [1] fell in the range of 0.5 to 5 µM; in assay [2], 5 to 50 µM.

Take “N-{2-Amino-2-[4-(pyridin-4- ylcarbamoyl)-phenyl]-ethyl}- nicotinamide [Compound 107]”: the IC50 in assay [1] (setting [5]) and in assay [2] (setting [5]) was 0.5 to 5 µM in each case.
